According to US6624165B2, “Cyclopentene derivatives useful as antagonists of the motilin receptor” (Ortho-McNeil Pharmaceutical, Inc., priority 2000, dated 2003):

Molecular target: T1, motilin receptors located on the colon of mature rabbits (Oryctolagus cuniculus, UniProt G1T803)
T1 construct: The muscle tissues were homogenized in 10 volumes of buffer; from tissue; host or cells: colon smooth muscle of mature New Zealand rabbits, crude membrane homogenate
Assay: Competition with radiolabeled motilin (porcine) for motilin receptors of rabbit colon membranes
Format: binding
Conditions: @100 nM, I125 motilin (porcine)
Protocol: A compound of the invention was tested for its ability to compete with radiolabeled motilin (porcine) for the motilin receptors located on the colon of mature rabbits. The colon from mature New Zealand rabbits was removed, dissected free from the mucosa and serosa layers, and diced into small pieces. The muscle tissues were homogenized in 10 volumes of buffer (50 mM Tris-Cl 10 MM MgCl2, 0.1 mg/mL bactracin, and 0.25 mM Peflabloc, pH 7.5) in a Polytron (29,000 rpm, 4×15 seconds). The homogenate was centrifuged at 1000×g for 15 min. and the supernatant discarded. The pellet was washed twice before being suspended in homogenizing buffer. This crude homogenate was then passed first through a 19 gauge needle then a 23 gauge needle to further suspend the material and stored at −80° C. […] The pellet was counted in the gamma counter to determine the percentage of […] motilin and thereby the percent inhibition of the test compound.
% Inhibition was Determined by Standard Techniques

T1 sequence (G1T803 1-400): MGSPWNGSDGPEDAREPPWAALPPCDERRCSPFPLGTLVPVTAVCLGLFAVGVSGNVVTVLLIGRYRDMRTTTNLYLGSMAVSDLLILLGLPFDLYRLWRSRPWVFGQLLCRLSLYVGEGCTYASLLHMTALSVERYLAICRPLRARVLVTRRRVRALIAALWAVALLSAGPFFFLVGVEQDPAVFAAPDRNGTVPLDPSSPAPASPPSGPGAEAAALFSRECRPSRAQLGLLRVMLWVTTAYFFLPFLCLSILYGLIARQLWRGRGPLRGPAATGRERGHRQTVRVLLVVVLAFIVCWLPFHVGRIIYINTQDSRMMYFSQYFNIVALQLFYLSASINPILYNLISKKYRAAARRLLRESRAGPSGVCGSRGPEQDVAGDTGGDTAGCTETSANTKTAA

## O=C(Nc1nncs1)N(CC1=CC(Cc2ccccc2)(NC(=O)C(Cl)(Cl)Cl)CC1)c1cccc(OCCN2CCOCC2)c1 (stereo not shown) [Example 2, 3-Benzyl-3-trichloroacetylamino—N-[(3-(2-morpholinoethoxy)phenyl)-N-[(1,3,4-thiadiazol-2-yl)aminocarbonyl)amino]methylcyclopentene]
  % Inhibition: 17%
